Results as given in the supplement of paper PMC10307832.

Key:
Test in all cases: relative viability (nuclei count vs DMSO), 5 days (fraction); higher = more cells survive
Pemetrexed + Navitoclax = compound: Nc1nc2[nH]cc(CCc3ccc(C(=O)N[C@@H](CCC(=O)O)C(=O)O)cc3)c2c(=O)[nH]1 [Pemetrexed] + CC1(C)CCC(c2ccc(Cl)cc2)=C(CN2CCN(c3ccc(C(=O)NS(=O)(=O)c4ccc(N[C@H](CCN5CCOCC5)CSc5ccccc5)c(S(=O)(=O)C(F)(F)F)c4)cc3)CC2)C1 [Navitoclax] (partner 0.5 µM)
Method in brief: (§1)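 Lung cancer cell lines in 1536-well plates were dosed by pin tool the day after seeding, either with one drug alone or with a fixed anchor-drug dose plus five library-drug doses (not always all listed) in √10 steps. After 5 days, cells were fixed and their nuclei stained in one step (final 0.05% Triton X-100, 1% formaldehyde, 1 ug/ml Hoechst), then counted on 4× images. Relative viability is the nuclei count in treated wells divided by that in vehicle wells. Values are medians of duplicate plates.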

Pemetrexed + Olaparib = compound: Nc1nc2[nH]cc(CCc3ccc(C(=O)N[C@@H](CCC(=O)O)C(=O)O)cc3)c2c(=O)[nH]1 [Pemetrexed] + O=C(c1cc(Cc2n[nH]c(=O)c3ccccc23)ccc1F)N1CCN(C(=O)C2CC2)CC1 [Olaparib] (partner 8 µM)
Method in brief: as §1

Idelalisib + Dasatinib = compound: CC[C@H](Nc1ncnc2[nH]cnc12)c1nc2cccc(F)c2c(=O)n1-c1ccccc1 [Idelalisib] + Cc1nc(Nc2ncc(C(=O)Nc3c(C)cccc3Cl)s2)cc(N2CCN(CCO)CC2)n1 [Dasatinib] (partner 0.075 µM)
Method in brief: as §1

Pemetrexed + Decitabine = compound: Nc1nc2[nH]cc(CCc3ccc(C(=O)N[C@@H](CCC(=O)O)C(=O)O)cc3)c2c(=O)[nH]1 [Pemetrexed] + Nc1ncn([C@H]2C[C@H](O)[C@@H](CO)O2)c(=O)n1 [Decitabine] (partner 2 µM)
Method in brief: as §1

Cell Line	relative viability (Pemetrexed + Navitoclax; first compound 0.002 µM)	relative viability (Pemetrexed + Navitoclax; first compound 0.006325 µM)	relative viability (Pemetrexed + Navitoclax; first compound 0.02 µM)	relative viability (Pemetrexed + Navitoclax; first compound 0.06325 µM)	relative viability (Pemetrexed + Navitoclax; first compound 0.2 µM)	relative viability (Pemetrexed + Olaparib; first compound 0.002 µM)	relative viability (Pemetrexed + Olaparib; first compound 0.006325 µM)	relative viability (Pemetrexed + Olaparib; first compound 0.02 µM)	relative viability (Pemetrexed + Olaparib; first compound 0.06325 µM)	relative viability (Pemetrexed + Olaparib; first compound 0.2 µM)	relative viability (Idelalisib + Dasatinib; first compound 0.04 µM)	relative viability (Idelalisib + Dasatinib; first compound 0.1265 µM)	relative viability (Idelalisib + Dasatinib; first compound 0.4 µM)	relative viability (Idelalisib + Dasatinib; first compound 1.265 µM)	relative viability (Idelalisib + Dasatinib; first compound 4 µM)	relative viability (Pemetrexed + Decitabine; first compound 0.002 µM)	relative viability (Pemetrexed + Decitabine; first compound 0.006325 µM)	relative viability (Pemetrexed + Decitabine; first compound 0.02 µM)	relative viability (Pemetrexed + Decitabine; first compound 0.06325 µM)	relative viability (Pemetrexed + Decitabine; first compound 0.2 µM)
201T	1.11	1.2	1.24	1.26	1.18	0.791	0.85	0.841	0.878	0.839	0.609	0.614	0.476	0.623	0.605	0.712	0.803	0.808	0.849	0.85
A549	1.11	1.13	1.25	1.22	1.12	0.29	0.292	0.379	0.338	0.343	–	–	–	–	–	0.234	0.213	0.194	0.346	0.281
A-427	0.891	0.979	0.978	1.04	0.954	0.758	0.765	0.775	0.759	0.711	0.783	0.685	0.568	0.704	0.671	0.585	0.537	0.545	0.572	0.544
ABC-1	–	–	–	–	–	0.839	0.867	0.985	0.875	0.865	0.537	0.599	0.582	0.681	0.573	1.15	1.02	1.32	0.997	1.19
CAL-12T	1.17	1.05	1.14	1.3	1.22	0.706	0.616	0.804	0.694	0.692	0.315	0.478	0.273	0.375	0.305	–	–	–	–	–
Calu-6	0.786	0.876	0.897	0.872	0.782	–	0.525	0.646	0.524	0.578	–	–	–	–	–	–	–	–	–	–
EBC-1	0.396	0.42	0.474	0.397	0.507	0.684	0.714	0.723	0.665	0.545	–	–	–	–	–	–	–	–	–	–
HCC-44	0.864	0.836	1.02	0.929	0.866	0.97	0.952	0.987	0.964	0.909	–	–	–	–	–	0.854	0.909	1.02	0.922	0.905
IA-LM	0.773	0.798	0.856	0.711	0.483	0.74	0.725	0.926	0.889	0.852	–	–	–	–	–	–	–	–	–	–
LCLC-103H	–	–	–	–	–	0.732	0.707	0.791	0.78	0.679	0.371	0.388	0.393	0.535	0.309	0.722	0.723	0.743	0.699	0.76
NCI-H358	–	–	–	–	–	0.582	0.622	0.66	0.397	0.151	0.167	0.165	0.13	0.143	0.173	0.177	0.208	0.214	0.155	0.127
NCI-H522	–	–	–	–	–	0.484	0.549	0.572	0.511	0.703	1.08	0.814	0.894	0.895	0.791	0.624	0.692	0.721	0.691	0.73
NCI-H650	–	–	–	–	–	0.382	0.403	–	0.302	0.378	0.498	0.438	0.432	0.481	0.394	0.287	0.31	–	0.293	0.313
NCI-H661	–	–	–	–	–	0.741	0.743	0.71	0.759	0.679	1.1	0.969	0.673	1.08	0.673	0.586	0.513	0.646	0.608	0.559
NCI-H1299	1.05	0.981	1.1	1.04	1	0.967	0.913	0.949	0.956	0.983	–	–	–	–	–	–	–	–	–	–
NCI-H1563	–	–	–	–	–	–	–	–	–	–	0.473	0.491	0.472	0.496	0.388	–	–	–	–	–
NCI-H1623	–	–	–	–	–	–	–	–	–	–	0.505	0.559	0.52	0.517	0.602	–	–	–	–	–
NCI-H1648	–	–	–	–	–	0.953	0.926	0.768	0.732	0.766	–	–	–	–	–	0.407	0.431	0.655	0.508	0.394
NCI-H1703	1.04	0.967	1.86	1.24	1.09	0.485	0.379	0.671	0.381	0.385	–	–	–	–	–	–	–	–	–	–
NCI-H2228	0.739	0.87	0.964	0.696	0.368	0.657	0.478	0.695	0.329	0.273	0.562	0.586	0.408	0.507	0.524	–	–	–	–	–
NCI-H2342	–	–	–	–	–	0.409	0.407	0.467	0.452	0.424	0.358	0.316	0.324	0.304	0.327	0.675	0.701	0.767	0.716	0.835
SW 900	–	–	–	–	–	0.871	0.797	1.07	0.621	0.494	0.497	0.543	0.417	0.543	0.326	0.342	0.433	0.553	0.377	0.424
